From ChEMBL document CHEMBL1828586 (J Med Chem, 2011)

Key:
[1] = Anticancer activity against mouse B16-F1 cells after 96 hrs by SRB assay; format: functional, cell-based; details: B16-F1, 96 h
A-375 = experiment: Anticancer activity against human A375 cells after 96 hrs by SRB assay; format: functional, cell-based; details: A-375, 96 h
DU-145 = experiment: Anticancer activity against human DU145 cells after 96 hrs by SRB assay; format: functional, cell-based; details: DU-145, 96 h
PC-3 = experiment: Anticancer activity against human PC3 cells after 96 hrs by SRB assay; format: functional, cell-based; details: PC-3, 96 h
LNCaP = experiment: Anticancer activity against human LNCAP cells after 96 hrs by SRB assay; format: functional, cell-based
PPC-1 = experiment: Anticancer activity against human PPC1 cells after 96 hrs by SRB assay; format: functional, cell-based; details: PPC-1, 96 h
[2] = Anticancer activity against human WM164 cells after 96 hrs by SRB assay; format: functional, cell-based; details: WM164, 96 h
OVCAR-8 [3] = experiment: Anticancer activity against human OVCAR8 cells after 96 hrs by SRB assay; format: functional, cell-based; details: OVCAR-8, 96 h
NCI/ADR-RES = experiment: Anticancer activity against P-gp overexpressing human NCI/ADR-RES cells after 96 hrs by SRB assay; format: functional, cell-based
OVCAR-8 [4] = experiment: Resistance factor, ratio of IC50 for human NCI-ADR-RES cells to IC50 for drug-sensitive human OVCAR8 cells; format: functional
[5] = AUC in Sprague-Dawley rat at 10 mg/kg, po by LC-MS/MS analysis; format: ADME, organism-based; set-up: dose 10 mg/kg, route oral; details: plasma
[6] = AUC in Sprague-Dawley rat at 5 mg/kg, iv by LC-MS/MS analysis; format: ADME, organism-based; set-up: dose 5 mg/kg, route intravenous; details: plasma
[7] = AUC in Sprague-Dawley rat at […], iv by LC-MS/MS analysis; format: ADME, organism-based; set-up: dose 2.5 mg/kg, route intravenous; details: plasma
Liver microsomes = experiment: Half life in human liver microsomes; format: ADME, Microsome

SMILES | IC50 [1] [nM] | IC50 (A-375) [nM] | IC50 (DU-145) [nM] | IC50 (PC-3) [nM] | IC50 (LNCaP) [nM] | IC50 (PPC-1) [nM] | IC50 [2] [µM] | IC50 (OVCAR-8 [3]) [nM] | IC50 (NCI/ADR-RES) [nM] | Ratio IC50 (OVCAR-8 [4]) | AUC [5] [ng·h/mL] | AUC [6] [ng·h/mL] | AUC [7] [ng·h/mL] | t1/2 (Liver microsomes) [min]
COc1cc(Sc2cccc(-c3ccccc3)c2)cc(OC)c1OC | 2400 | 1600 | > 10000 | > 10000 | 2300 | 2300 | 2 |  |  |  |  |  |  | 
COc1cc(/C(=N\O)c2csc(-c3ccccc3)n2)cc(OC)c1OC | 11400 | 7800 | > 10000 | > 10000 | > 10000 | > 10000 |  |  |  |  |  |  |  | 
COc1cc(C(=C(C)C)c2csc(-c3ccccc3)n2)cc(OC)c1OC | 3800 | 1900 | 2650 | 2470 | 1390 | 2040 | 3.7 |  |  |  |  |  |  | 
CO/N=C(\c1cc(OC)c(OC)c(OC)c1)c1csc(-c2ccccc2)n1 | > 10000 | > 10000 | > 10000 |  |  | > 10000 | > 10 |  |  |  |  |  |  | 
COc1cc(C(=O)c2csc(Nc3ccccc3)n2)cc(OC)c1OC | 65 |  | 70 | 57 | 51 | 54 |  | 46 | 27 | 0.6 |  |  |  | 
COc1cc(C(=O)c2csc(Nc3ccccc3)n2)cc(OC)c1OC.Cl |  |  |  |  |  |  |  |  |  |  | 1080 | 4930 |  | 
COc1cc(C(O)c2csc(-c3ccccc3)n2)cc(OC)c1OC (stereo not given) | > 30000 | > 30000 | > 10000 | > 10000 | > 10000 | > 10000 |  |  |  |  |  |  |  | 
COc1cc(/C(=C\C#N)c2csc(-c3ccccc3)n2)cc(OC)c1OC | 1200 | 1200 | 10000 | 10000 | 1990 | 10000 | 1 |  |  |  |  |  |  | 
COc1cc(-c2csc(-c3ccccc3)n2)cc(OC)c1OC | > 10000 | > 10000 | > 10000 | > 10000 | > 10000 | > 10000 | > 10 |  |  |  |  |  |  | 
COc1cc(/C(=N/N)c2csc(-c3ccccc3)n2)cc(OC)c1OC | 2000 | 900 | 1210 | 1120 | 1800 | 872 |  |  |  |  |  |  |  | 
COc1cc(C(=O)c2csc(-c3cc4ccccc4[nH]3)n2)cc(OC)c1OC | 43 | 19 | 32 | 24 | 28 | 28 |  |  |  |  |  |  |  | 
COc1cc(C(=O)c2csc(Nc3ccc(C)cc3)n2)cc(OC)c1OC [listing 1 of 2 here] |  |  |  |  |  |  |  | 28 | 21 | 0.8 |  |  |  | 
COc1cc(C(=O)c2cnc(-c3ccccc3)s2)cc(OC)c1OC | 12500 | 13600 | > 10000 | > 10000 | > 10000 | > 10000 |  |  |  |  |  |  |  | 
COc1cc(C(=O)Nc2csc(-c3ccccc3)n2)cc(OC)c1OC | > 30000 | > 30000 | > 10000 | > 10000 | > 10000 | > 10000 |  |  |  |  |  |  |  | 
COc1cc(C(=O)c2csc(-c3ccccc3)c2)cc(OC)c1OC | 72 | 15 | 26 | 12 |  | 15 |  |  |  |  |  |  |  | 
COc1cc(C(=O)c2coc(-c3ccccc3)n2)cc(OC)c1OC | 600 | 300 | 292 | 292 | 331 | 343 |  |  |  |  |  |  |  | 
COc1cc(C(=O)c2csc(-c3ccc(O)cc3)n2)cc(OC)c1OC | 110 | 100 | 116 | 87 | 103 | 76 |  |  |  |  |  |  |  | 
COc1cc(C(=O)c2cccc(-c3ccccc3)c2)cc(OC)c1OC | 500 | 87 | 171 | 124 | 52 | 80 |  |  |  |  |  |  |  | 
COc1cc(S(=O)(=O)c2cccc(-c3ccccc3)c2)cc(OC)c1OC | > 10000 | > 10000 | > 10000 | > 10000 | > 10000 | > 10000 | > 10 |  |  |  |  |  |  | 
COc1cc(C(=O)[C@@H]2CSC(c3ccc(O[Si](C)(C)C(C)(C)C)cc3)=N2)cc(OC)c1OC | 500 | 700 | 434 | 183 | 549 | 246 |  |  |  |  |  |  |  | 
COc1cc(C(=O)c2cc(-c3ccccc3)ncn2)cc(OC)c1OC | > 30000 | > 30000 | 6900 | 8300 | 7000 | 3700 |  |  |  |  |  |  |  | 
COc1cc(C(=O)c2csc(Nc3ccc(F)cc3)n2)cc(OC)c1OC |  |  | 63 |  | 41 |  |  | 44 | 25 |  |  |  |  | 

SMILES | IC50 [1] [nM] | IC50 (A-375) [nM] | IC50 (DU-145) [nM] | IC50 (PC-3) [nM] | IC50 (LNCaP) [nM] | IC50 (PPC-1) [nM] | IC50 [2] [µM] | IC50 (OVCAR-8 [3]) [nM] | IC50 (NCI/ADR-RES) [nM] | Ratio IC50 (OVCAR-8 [4]) | AUC [5] [ng·h/mL] | AUC [6] [ng·h/mL] | AUC [7] [ng·h/mL] | t1/2 (Liver microsomes) [min]
COc1cc(C(=O)c2csc(-c3ccc4[nH]ccc4c3)n2)cc(OC)c1OC | 25 | 8 | 13 | 7 |  | 8 |  | 10 | 4 | 0.4 |  |  |  | 
COc1cc(C(=O)c2ccc(-c3ccccc3)o2)cc(OC)c1OC | 151 | 27 | 35 | 21 | 23 | 20 |  |  |  |  |  |  |  | 
COc1cc(C(=O)c2csc(-c3ccccc3)n2)cc(OC)c1OC | 55 |  |  |  |  |  | 0.064 | 35 |  |  | 617 |  | 4650 | 
COc1cc(NC(=O)c2csc(-c3ccccc3)n2)cc(OC)c1OC | > 30000 | > 30000 | > 10000 | > 10000 | > 10000 | > 10000 |  |  |  |  |  |  |  | 
COc1cc([S+]([O-])c2cccc(-c3ccccc3)c2)cc(OC)c1OC (stereo not given) | > 10000 | > 10000 | > 10000 | > 10000 | > 10000 | > 10000 | > 10 |  |  |  |  |  |  | 
COc1cc(NS(=O)(=O)c2cccc(-c3ccccc3)c2)cc(OC)c1OC | > 10000 | > 10000 | > 10000 | > 10000 | > 10000 | > 10000 | > 10 |  |  |  |  |  |  | 
COc1cc(/C(=N/O)c2csc(-c3ccccc3)n2)cc(OC)c1OC | 300 | 200 | 103 | 120 | 169 | 144 |  |  |  |  |  |  |  | 
COc1cc(C(=O)c2csc(-c3ccc(CN(C)C)cc3)n2)cc(OC)c1OC | > 10000 | > 10000 | > 10000 | > 10000 | 1020 | > 10000 |  |  |  |  |  |  |  | 
COc1cc(C(=O)[C@@H]2COC(c3ccccc3)=N2)cc(OC)c1OC | 6500 | 500 |  |  |  | 1100 |  |  |  |  |  |  |  | 
COc1cc(C(=O)N2CCC(c3ccccc3)CC2)cc(OC)c1OC | > 30000 | > 30000 | > 20000 | > 20000 | > 20000 | > 20000 |  |  |  |  |  |  |  | 
COc1cc(/C(=N\N)c2csc(-c3ccccc3)n2)cc(OC)c1OC | 1800 | 600 |  | 1040 | 1300 | 966 |  |  |  |  |  |  |  | 
COc1cc(C(=O)c2cc(-c3ccccc3)n[nH]2)cc(OC)c1OC | 245 | 100 | 145 | 101 | 101 | 84 |  |  |  |  |  |  |  | 
COc1cc(C(=O)c2csc(Nc3ccc(F)cc3)n2)cc(OC)c1OC.Cl |  |  |  |  |  |  |  |  |  |  | 2670 | 6350 |  | 
COc1cc(C(=O)c2csc(Nc3ccc(C)cc3)n2)cc(OC)c1OC [listing 2 of 2 here] |  |  | 35 | 38 | 35 | 36 |  |  |  |  |  |  |  | 
COc1cc(/C(=N\C#N)c2csc(-c3ccccc3)n2)cc(OC)c1OC | 60 | 28 | 42 | 27 | 23 | 20 | 0.027 | 34 | 14 | 0.4 |  |  |  | < 5
COc1cc(/C(=C/C#N)c2csc(-c3ccccc3)n2)cc(OC)c1OC | 5400 | 4600 | 2280 | 890 | 580 | 900 | 4.9 |  |  |  |  |  |  | 
COc1cc(C(=O)c2cc(-c3ccccc3)on2)cc(OC)c1OC | > 30000 | > 30000 | > 10000 | > 10000 | > 10000 | > 10000 |  |  |  |  |  |  |  | 
COc1cc(C(=O)c2cccc(-c3ccccc3)n2)cc(OC)c1OC | 39 | 30 |  |  | 27 | 25 |  | 33 | 13 | 0.4 |  |  |  | 
CC(=O)O[C@H]1C(=O)[C@@]2(C)[C@H]([C@H](OC(=O)c3ccccc3)[C@]3(O)C[C@H](OC(=O)[C@H](O)[C@@H](NC(=O)c4ccccc4)c4ccccc4)C(C)=C1C3(C)C)[C@]1(OC(C)=O)CO[C@@H]1C[C@@H]2O [PACLITAXEL] |  |  |  |  |  |  |  | 4.7 |  |  |  |  |  | 
CO/N=C(/c1cc(OC)c(OC)c(OC)c1)c1csc(-c2ccccc2)n1 | 3800 | 2900 | > 10000 | > 10000 | > 10000 |  | 3.4 |  |  |  |  |  |  | 
COc1cc(C(=O)c2csc(-c3ccc(CNC(=O)OC(C)(C)C)cc3)n2)cc(OC)c1OC | 2900 | 7900 | 4300 | 3100 | 2600 | 2700 |  |  |  |  |  |  |  | 
CNCc1ccc(-c2nc(C(=O)c3cc(OC)c(OC)c(OC)c3)cs2)cc1 | > 10000 | > 10000 | 10000 | > 10000 | 1140 | 10000 |  |  |  |  |  |  |  | 
